Publication PMC7203344, “Sirtuin 1 Inhibiting Thiocyanates (S1th)—A New Class of Isotype Selective Inhibitors of NAD^+ Dependent Lysine Deacetylases” (Frontiers in Oncology, 2020)
Where “and” joins values, the source holds several entries; their conditions need not be identical. Equal values may be shown once. Entries after “also recorded” stand apart in the source; their conditions may differ. Blank lines part the entries; values can stand above or below the compound they belong to.

What was measured:
Sirt1 [1] = target: T1, Sirt1 (Homo sapiens, UniProt Q96EB6); test: Fluorescent thermal shift assay (FTSA), Sirt1; type: binding
T1 construct: made in house; host or cells: E. coli BL21 Star (DE3)
T1 sequence (Q96EB6 134-747): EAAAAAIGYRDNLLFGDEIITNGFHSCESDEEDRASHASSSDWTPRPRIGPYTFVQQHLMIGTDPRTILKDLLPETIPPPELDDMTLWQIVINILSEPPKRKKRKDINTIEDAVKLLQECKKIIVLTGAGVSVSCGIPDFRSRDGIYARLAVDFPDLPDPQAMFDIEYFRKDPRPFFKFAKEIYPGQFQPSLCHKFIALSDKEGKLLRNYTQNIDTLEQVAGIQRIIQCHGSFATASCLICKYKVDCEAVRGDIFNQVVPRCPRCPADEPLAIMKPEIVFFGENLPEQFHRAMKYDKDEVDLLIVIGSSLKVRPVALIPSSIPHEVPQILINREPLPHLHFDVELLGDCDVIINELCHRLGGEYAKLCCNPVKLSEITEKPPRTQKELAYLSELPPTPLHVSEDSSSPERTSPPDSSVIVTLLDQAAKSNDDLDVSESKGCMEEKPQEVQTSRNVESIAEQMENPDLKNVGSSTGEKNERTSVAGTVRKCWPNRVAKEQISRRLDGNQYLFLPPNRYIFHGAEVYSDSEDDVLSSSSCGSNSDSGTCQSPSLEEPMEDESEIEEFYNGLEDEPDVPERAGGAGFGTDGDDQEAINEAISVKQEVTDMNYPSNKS
Protocol: In a 96-well plate (Hard-Shell® PCR-plates, 96-well, thin-wall, BioRAD, USA) 14 μL Sirt1_134−747 in assay buffer (0.3 mg/mL final assay concentration, 50 mM Tris/HCl, 137 mM NaCl, 2.7 mM KCl, 1 mM MgCL2, pH 8.0) were mixed with 1 μL inhibitor in DMSO (100 μM) or DMSO [final assay concentration 5% (v/v)] as a control and 5 μL SyproOrange (1:100 in assay buffer). The fluorescence intensity was monitored during a constant increase of temperature from 20 to 95°C, 1 K per 20 s, using a real-time-PCR-machine (C1000 TouchTM Thermal Cycler, CFX96TM Real-Time System, BioRAD, USA). Melting temperatures were calculated via GraphPad Prism according to a published procedure ([60]).

Sirt1 [2] = target: T1, Sirt1; test: Homogeneous ZMAL-based fluorescence assay, Sirt1; type: biochemical
Protocol: (§1) Recombinant human Sirt5_37−310 was purchased readily in Tris Buffer [25 mM Tris, 100 mM NaCl, 5 mM DTT, 10% glycerol (v/v)] from Enzo Life Sciences (NY, USA). Human Sirt3_118−395 was expressed and purified as described previously ([54]). For expression of human Sirt1_134−747 and Sirt2_56−356 chemically competent cells of E. coli BL21 Star (DE3) were transformed with the expression vectors pET30S-hSirt1_134−747 or pET30S-hSirt2_56−356. Bacteria were grown at 37°C in 2×YT medium supplemented with 50 μg·mL^−1 of kanamycin to an OD600 of 0.6. Then isopropyl-β-D-1-thiogalactopyranoside (IPTG) was added to a final concentration of 1 mM to induce gene expression. After further cultivation at 20°C for 12 h, the cells were harvested by centrifugation for 15 min at 5,000 g. The cells were resuspended in lysis buffer [100 mM Tris/HCl buffer at pH 8.0, 150 mM NaCl and 10% (v/v) glycerol] and disrupted by ultrasonication (Branson Digital Sonifier 250) at 70% amplitude for 10 min (3 s working, 10 s pause). The crude extract was cleared by centrifugation at 100,000 g for 1 h, and the supernatant was loaded onto a Strep-Tactin Superflow cartridge (5 ml bed volume, IBA Lifescience, Germany). Target proteins were eluted with lysis buffer containing 5 mM D-Desthiobiotin (IBA Lifescience, Germany) and further separated by size-exclusion chromatography (Superdex S200 26/60, GE Healthcare, IL, USA) equilibrated in Tris/HCl buffer (20 mM, 150 mM NaCl, pH 8.0). Pure protein was concentrated by ultrafiltration, flash-frozen in liquid nitrogen and stored at −80°C until further use. Identity as well as purity were verified by SDS-PAGE ([55]) and protein concentration was determined by the bicinchoninic acid (BCA) method, using bovine serum albumin (BSA) as a standard ([56]). Deacetylase activity was confirmed to be NAD^+-dependent and could be inhibited with the physiological sirtuin inhibitor nicotinamide.
(§2) All compounds were tested in the trypsin-coupled high-throughput ZMAL-assay in black 96-well plates (OptiPlateTM−96F, black, 96 well, Pinch bar design, PerkinElmer, USA), using ZMAL (Z-Lys(acetyl)-AMC) as a substrate ([57]). Sirt1_134−747, Sirt2_56−356, and Sirt3_118−395 were mixed with 5 μL substrate (10.5 μM final assay concentration, diluted from a […] stock in DMSO) and 3 μL Inhibitor in DMSO at various concentrations or DMSO as a control [final DMSO concentration 5% (v/v)]. The mixture was supplemented with assay buffer (50 mM Tris/HCl, 137 mM NaCl, 2.7 mM KCl, 1 mM MgCL2, pH 8.0) to a total volume of 55 μL. Enzyme concentration was adjusted to get a final conversion of 20–30%. Addition of 5 μL NAD^+ (6 mM in assay buffer, final assay concentration of 500 μM) initiated the catalytic reaction and the plates were incubated at 37°C for 4 h with agitation at 140 rpm. The catalytic reaction was stopped by addition of 60 μL stop solution [50 mM Tris, 100 mM NaCl, 6.7% (V/V) DMSO, 5.5 U/μL trypsin, 8 μM nicotinamide, pH 8.0]. The plate was again incubated at 37°C and 140 rpm for 20 min to release free AMC from the deacetylated substrate by trypsin digestion. Afterwards, fluorescence intensity was measured in a microplate reader (λEx = 390 nm, λEm = 460 nm, BMG POLARstar Optima, BMG Labtech, Germany). An enzyme-free blank control and a 100% conversion control containing AMC instead of ZMAL were measured in addition. Inhibition was calculated in % in relation to a DMSO control after blank signal subtraction and IC50 values were determined using a non-linear regression to fit the dose-response curve with OriginPro 9G (OriginLab, USA). Pre-tests as well as IC50 determination was carried out at least twice in duplicates.

human Sirt3 = target: T2, human Sirt3 (Homo sapiens, UniProt Q9NTG7); test: Homogeneous ZMAL-based fluorescence assay, Sirt3; type: biochemical
T2 construct: Human Sirt3_118−395 was expressed and purified as described previously; made in house
T2 sequence (Q9NTG7 118-395): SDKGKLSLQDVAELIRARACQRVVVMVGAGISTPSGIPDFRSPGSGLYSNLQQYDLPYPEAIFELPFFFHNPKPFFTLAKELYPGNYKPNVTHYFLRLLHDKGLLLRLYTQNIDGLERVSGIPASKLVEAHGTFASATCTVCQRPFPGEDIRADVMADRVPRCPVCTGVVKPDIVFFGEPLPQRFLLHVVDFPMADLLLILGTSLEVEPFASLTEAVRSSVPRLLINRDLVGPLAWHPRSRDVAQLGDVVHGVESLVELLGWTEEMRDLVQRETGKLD
Protocol: as §1, §2

human Sirt2 = target: T3, human Sirt2 (Homo sapiens, UniProt Q8IXJ6); test: Homogeneous ZMAL-based fluorescence assay, Sirt2; type: biochemical
T3 construct: made in house; host or cells: E. coli BL21 Star (DE3)
T3 sequence (Q8IXJ6 56-356): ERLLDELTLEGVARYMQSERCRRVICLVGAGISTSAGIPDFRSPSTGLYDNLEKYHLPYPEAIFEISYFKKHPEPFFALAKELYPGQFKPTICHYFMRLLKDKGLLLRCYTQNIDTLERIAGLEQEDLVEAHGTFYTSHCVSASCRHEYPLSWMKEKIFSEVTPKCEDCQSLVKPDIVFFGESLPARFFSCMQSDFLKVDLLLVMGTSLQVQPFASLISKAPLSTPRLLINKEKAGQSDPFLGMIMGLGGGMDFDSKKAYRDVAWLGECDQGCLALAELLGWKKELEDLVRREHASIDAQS
Protocol: as §1, §2

[3] = system: γH2AX/H2AX levels in MEF cells; test: γH2AX level determination by western blot; type: cell-based, mouse; details: 48 h, EX-527 10 μM, S1th 10 30 μM, S1th 12 20 μM, S1th 13 12 μM, SirReal2 30 μM
Protocol: Sirt1 WT and KO MEFS cells were treated with 10 μM EX-527, 12 μM S1th 13 (6), 20 μM S1th 12 (5), 30 μM S1th 10 (7) and 30 μM SirReal2 [Sirt2 inhibitor, synthesized according to ([62])] for 48 h. Oxidative stress was induced using 10 μM Camptothecin 2 h. Whole-cell extracts were performed according to the Dignam protocol ([63]). Primary antibodies used for the western blot were anti-H2AX and anti-γH2AX (ab11175 and ab2893 resp., Abcam, UK). Densiometric analysis of the western blots was performed with Quantity One software (Bio-Rad Laboratories, Inc., USA).

[4] = 2nd round of in vitro screening

Compound: NC(=O)c1ccc[n+]([C@@H]2O[C@H](COP(=O)([O-])OP(=O)(O)OC[C@H]3O[C@@H](n4cnc5c(N)ncnc54)[C@H](O)[C@@H]3O)[C@@H](O)[C@H]2O)c1 [NAD^+]
effect on Tm of Sirt1 (in words) (Sirt1 [1]): slightly increased

Compound: O=C(Nc1ccccc1-c1cn2c(CN3CCNCC3)csc2n1)c1cnc2ccccc2n1 [SRT1720]
effect on Tm of Sirt1 (in words) (Sirt1 [1]): barely effected; also recorded: very small shift or no shift at all

Compound: Cc1cc(C)nc(SCC(=O)Nc2ncc(Cc3cccc4ccccc34)s2)n1 [SirReal2, reference compound]
γH2AX/H2AX levels without Camptothecin [3]: does not affect

Compound: adenosine diphosphate ribose [ADPR]
effect on Tm of Sirt1 (in words) (Sirt1 [1]): strongly increased | stabilization (increase of Tm) of Sirt1 (Sirt1 [1]): up to 4 K

Continued, values first:

effect on Tm of Sirt1 (in words) (Sirt1 [1]): no reasonable melting curve is obtained
Compound: O=c1c2cccnc2sn1Cc1ccc(C(F)(F)F)cc1 [PU141]

inhibition at 50 µM (Sirt1 [2]; 50 µM, primary screen): 82% | IC50 (Sirt1 [2]; [4]): 13 ± 0.6 µM | inhibition at 50 µM (human Sirt3; [4]): < 10% | inhibition at 50 µM (human Sirt2; [4]): 23%
Compound: CCCc1cc(=O)[nH]c(SCC(=O)Nc2cccc(SC#N)c2)n1 [S1th 1]

IC50 (Sirt1 [2]; 3rd round): 6.34 µM and 6.3 µM | inhibition at 50 µM (human Sirt3; 3rd round): < 10% | inhibition at 50 µM (human Sirt2; 3rd round): < 10%
Compound: N#CSc1cccc(NC(=O)c2ccc3c(c2)OCCO3)c1 [S1th 7]
